CC(C)(N)C(=O)O
solubility (mole fraction)
Details | 283.15 K | 288.15 K | 293.15 K | 298.15 K | 303.15 K | 308.15 K | 313.15 K | 318.15 K | 323.15 K
in 2-butanone | 0.000215 | 0.000258 | 0.000319 | 0.000415 | 0.000507 | 0.000599 | 0.00068 | 0.000803 | 0.000946
in DMF | 5.8e-05 | 0.00019 | 0.000365 | 0.00067 | 0.00102 | 0.00163 | 0.00245 | 0.00356 | 0.00462
in acetone | 6e-05 | 9.7e-05 | 0.00016 | 0.000211 | 0.000253 | 0.000319 | 0.000386 | 0.000442 | 0.000501
in acetonitrile | 0.000123 | 0.00014 | 0.000163 | 0.000189 | 0.000218 | 0.00024 | 0.000277 | 0.000317 | 0.000366
in ethanol | 0.000102 | 0.000183 | 0.000277 | 0.000376 | 0.000479 | 0.000579 | 0.000669 | 0.000763 | 0.000879
in ethyl acetate | 0.000164 | 0.000246 | 0.000353 | 0.000507 | 0.000635 | 0.000808 | 0.000949 | 0.00111 | 0.00137
in isopropanol | 0.000157 | 0.000176 | 0.000198 | 0.000227 | 0.000275 | 0.000336 | 0.000396 | 0.000466 | 0.000576
in methanol | 0.000625 | 0.000658 | 0.000715 | 0.000792 | 0.000878 | 0.000947 | 0.00106 | 0.00117 | 0.0013
in methyl acetate | 6.8e-05 | 0.000102 | 0.00013 | 0.000168 | 0.00021 | 0.000248 | 0.000306 | 0.000364 | 0.000436
in n-butanol | 0.000158 | 0.000219 | 0.00027 | 0.000334 | 0.00043 | 0.000518 | 0.00065 | 0.000783 | 0.000963
in n-pentanol | 0.0002 | 0.000248 | 0.000302 | 0.000369 | 0.000448 | 0.000523 | 0.000616 | 0.000721 | 0.000843
in n-propanol | 0.00015 | 0.000207 | 0.000302 | 0.000388 | 0.000466 | 0.000553 | 0.000659 | 0.000774 | 0.000945
in water | 0.0256 | 0.0259 | 0.0261 | 0.0266 | 0.0269 | 0.0273 | 0.0276 | 0.0282 | 0.0291
